{
  "source": "paper PMC9585581",
  "about": "“Developing Photoaffinity Probes for Dopamine Receptor D2 to Determine Targets of Parkinson’s Disease Drugs” (ACS Chemical Neuroscience, 2022)",
  "key": {"human DRD2, long form": {"target": "T1, human DRD2, long form (Homo sapiens, UniProt P14416)", "T1 construct": "expressed in transfected cells; Gqi5 chimera transiently transfected", "T1 sequence (P14416 whole entry)": "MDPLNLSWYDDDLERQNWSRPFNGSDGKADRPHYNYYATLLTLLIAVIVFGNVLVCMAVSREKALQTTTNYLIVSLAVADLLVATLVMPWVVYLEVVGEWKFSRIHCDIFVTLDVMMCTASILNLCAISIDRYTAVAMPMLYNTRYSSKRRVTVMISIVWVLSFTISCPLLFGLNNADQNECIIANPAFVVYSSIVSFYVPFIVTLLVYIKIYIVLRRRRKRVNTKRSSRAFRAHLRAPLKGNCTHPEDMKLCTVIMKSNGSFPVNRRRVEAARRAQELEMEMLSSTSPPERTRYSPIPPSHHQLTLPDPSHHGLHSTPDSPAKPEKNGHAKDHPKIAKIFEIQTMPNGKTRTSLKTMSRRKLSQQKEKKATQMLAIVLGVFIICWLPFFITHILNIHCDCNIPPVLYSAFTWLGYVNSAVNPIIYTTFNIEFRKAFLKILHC", "assay": "Intracellular Ca2+ mobilization assay (HEK293T stably expressing DRD2, chimeric G-protein Gqi5, calcium dye, confocal microscopy)", "format": "cell-based", "conditions": "for activity in calcium flux assay (in words): calcium flux bioactivity", "protocol": "Intracellular calcium measurement was used to determine G-protein-mediated signaling by DRD2. Because DRD2 is linked to the G-protein subtype Gi, agonist binding inhibits adenyl cyclase activity.[42] To mitigate this effect, we created an HEK293T cell line stably expressing human DRD2, long form, and a chimeric G-protein, Gqi, which alters the DRD2 receptor’s G-protein coupling so that signaling can occur through Gq, resulting in an intracellular calcium flux.[43] The assay is performed by first loading the cell line with a calcium-sensing dye. Binding of the ligand to the receptor results in an influx of calcium to the cytoplasm, which can be characterized in real time by monitoring the increase in dye fluorescence with confocal microscopy.\nFigure 2 Intracellular calcium flux assay. HEK293T cell line stably expressing constructs for human DRD2 and a chimeric G-protein is loaded with calcium-sensing dye, […]. After dosing the probe, confocal microscopy is used to determine the calcium flux in the cell by change in dye fluorescence.\nA stable HEK293T-derived cell line-expressing DRD2-Strep Tag II fusion was maintained in DMEM supplemented with 10% FBS, 100 U/mL penicillin, and 100 μg/mL streptomycin in a humidified atmosphere at 37 °C in 5% CO2. On day 1, cells were plated at a density of 4 × 10^4 cells/cm^2 in a poly-D-lysine-coated 18-well chambered coverslip (Ibidi). The following day (day 2), cells were transfected with a 10× solution of 3:1 mixture of Gqi5/Optifect Transfection Reagent (Thermo) in unsupplemented DMEM. On day 3, the transfection media was removed and calcium-sensitive dye loading was performed following the protocol of the Fluo-4 Direct Calcium Assay Kit (Invitrogen). 5× drug stimulation solutions were prepared in filter-sterilized HBSS. Once Fluo-4 loading was complete, a time series acquisition at a rate of 1 fps was recorded using a Zeiss LSM 980 with Airyscan 2. Basal fluorescence was recorded for 20 s, followed by the addition of drug solution to a 1× final concentration and acquisition for an additional 40 s. Results in the form of fold fluorescence increase over basal were averaged over 50 cells in ImageJ (NIH), and GraphPad Prism was used for the analysis of data."}, "DRD2 [1]": {"target": "T2, DRD2 (Homo sapiens, UniProt P14416)", "T2 sequence (P14416 whole entry)": "as above", "assay": "Western blot analysis of DRD2-probe binding with competition by parent pharmacophore", "design": "expressed in transfected cells", "conditions": "probe 100 nm; membrane fraction enriched via Strep Tag II", "from_the_text": "To observe the photo-cross-linking of DRD2 at the protein level, we analyzed the colocalization of DRD2 by clicking a fluorophore on the probe and performing Western blots. We further observed the competition with the parent pharmacophore of each probe and the ability of a negative control benzophenone (16) to cross-link to DRD2. Our DRD2-expressing cells or unmodified 293T cells (control group) were suspended in media, treated with the probe at a 100 nm concentration, and photo-cross-linked. The cells were then lysed, and the membrane fraction was separated and enriched for DRD2 by pulldown of the Strep Tag II fusion using magnetic beads. After “clicking” a fluorescent tag to the probe, the membrane fraction was run on an SDS-PAGE gel, transferred to a nitrocellulose membrane, and treated with antibodies against DRD2 and Strep Tag II. […] We also observed many nonspecific binding bands for the probe, which is consistent with our other studies, as well as the observations of the field when it relates to photo-cross-linking groups. […] With this confirmation, we proceeded to proteomic analysis of probe interactions.\nFigure 6 Photo-cross-linking of probes 5 and 7 to DRD2 visualized with Western blot. Lanes 1–5 correspond to samples with probe 5 at 100 nm, lanes 6–10 correspond to samples treated with probe 7 at 100 nm, and lanes 11–14 correspond to samples treated with negative control probe 16. Lanes: 1, 6, and 11 are the anti-DRD2 antibody channel, lanes 2, 3, 7, 8, and 12 are fluorescence of the Alexa Fluor 555 clicked to the probes 5, 7, or 16, lanes 4, 9, and 13 are the anti-Strep Tag antibody channel, and lanes 5, 10, and 14 are the overlaid channels for the respective probes.\nA stable HEK293T-derived cell line-expressing DRD2-Strep Tag II fusion was maintained in DMEM supplemented with 10% FBS, 100 U/mL penicillin, and 100 μg/mL streptomycin in a humidified atmosphere at 37 °C in 5% CO2. Cells were plated at a density of 4 × 10^4 cells/cm^2 in T300 tissue culture flasks (CellTreat) and allowed to grow to an 80% confluency. At confluency, media was removed and cells were washed once with cold HBSS, followed by incubation for 15 min in cold HBSS with 0.53 mM EDTA. Following incubation, cells were scraped off of the bottom of the flask and the cell suspension was transferred to a 15 mL conical tube and then pelleted at 500g for 5 min. The supernatant was removed, and the cell pellet was resuspended in HBSS followed by centrifugation at 500g for 5 min. […] The supernatant of the cell pellet was removed, and the cells were resuspended in probe solution and incubated at room temperature for 2 min followed by centrifugation at 500g for 5 min. The cell pellet was resuspended in either HBSS or 50 μM competitor solution in HBSS and irradiated with a 365 nm UV lamp (8 W, 2 cm distance) for 30 min at room temperature. The cells were then pelleted at 500g for 5 min, and the supernatant was removed. Membrane fractionation was performed following the MEM-PER Membrane Protein Extraction Kit (Thermo). The solubilized membrane fraction was incubated with hydrophilic streptavidin magnetic beads (NEB) for 1 h at room temperature. The flow-through was removed, and the beads were washed twice with PBS. […]"}, "[2]": {"conditions": "cited from earlier work"}, "DRD2 [3]": {"target": "T2, DRD2", "assay": "PRESTO-TANGO β-arrestin recruitment assay (HTLA cells transfected with DRD2-TANGO, luciferase readout)", "format": "cell-based", "design": "TEV protease site and fused transcription factor (TANGO module); expressed in transfected cells; host or cells: HTLA cells (gift of G. Barnea), transiently transfected", "conditions": "for activity in β-arrestin recruitment (in words): PRESTO-TANGO", "from_the_text": "To characterize the response of the β-arrestin effector pathway to our ligands, we used the Parallel-Receptor-ome Expression and Screening via Transcriptional Output TANGO (PRESTO-TANGO) assay developed in the Roth lab.[44],[45] This assay uses luciferase activity to monitor β-arrestin recruitment by DRD2 (Figure 3a).\nFigure 3 β-Arrestin recruitment analysis. (a) PRESTO-TANGO assay schematic: a ligand binds a chimeric DRD2 receptor, which then recruits β-arrestin fused with a TEV protease. The protease cuts a site between the receptor and a fused transcription factor, which then transits to the […] to initiate transcription of a luciferase gene. The luciferase activity is subsequently quantified.\nHTLA cells were a gift from the laboratory of G. Barnea and were maintained in DMEM supplemented with 10% FBS, 100 U/mL penicillin, 100 μg/mL streptomycin, 2 μg/mL puromycin, 100 μg/mL hygromycin B, and 100 μg/mL G418 in a humidified atmosphere at 37 °C in 5% CO2. On day 1, cells were plated at a density of 1 × 10^5 cells/cm^2 in a black wall, clear-bottom 96-well plate (Nunc). The following day (day 2), cells were transfected with a 10× solution of 3:1 mixture of DRD2-TANGO/Optifect Transfection Reagent (Thermo) in unsupplemented DMEM. On day 3, 1× drug stimulation solutions were prepared in filter-sterilized unsupplemented DMEM. The transfection media was shaken or aspirated from the wells, and drug stimulation solutions were gently added. On day 4, drug solutions were removed from one well every 10 s (to maintain consistency of incubation time) and 50 μL per well of Bright-Glo solution (Promega) diluted 20-fold in HBSS was added. After incubation for 2 min at room temperature, luminescence was counted with an integration time of 10 s in a Spectramax i3x plate reader (Molecular Devices)."}, "Dopamine receptor D1": {"test_system": "Dopamine receptor D1", "conditions": "stated without reference; cited from earlier work"}},
  "note": "pEC50: −log10 of the molar value.",
  "data": [
    {"compound": "C#CCCC1(CCC(=O)N(CCC)CCc2cccc3c2CC(=O)N3)N=N1", "note": "[Compound 4, 3-(3-(But-3-yn-1-yl)-3H-diazirin-3-yl)-N-(2-(2-oxoindolin-4-yl)ethyl)-N-propylpropanamide]", "values": [
      {"measurement": "activity in calcium flux assay (in words)", "setting": "human DRD2, long form", "result": "greatly diminished activity"}
    ]},
    {"compound": "C#CCCC1(CCC(=O)N[C@H]2CCc3nc(N)sc3C2)N=N1", "note": "[Compound 8, (S)-N-(2-Amino-4,5,6,7-tetrahydrobenzo[d]thiazol-6-yl)-3-(3-(but-3-yn-1-yl)-3H-diazirin-3-yl)propanamide]", "values": [
      {"measurement": "activity in calcium flux assay (in words)", "setting": "human DRD2, long form", "result": "greatly diminished activity"}
    ]},
    {"compound": "C#CCOc1ccc(C(=O)c2ccc(CN)cc2)cc1", "note": "[Compound 16, reference compound]", "values": [
      {"measurement": "photo-cross-linking / colocalization with DRD2 band (Western blot)", "setting": "DRD2 [1]", "result": "did not show colocalization with the DRD2 band"}
    ]},
    {"compound": "CCCN[C@H]1CCc2nc(N)sc2C1", "note": "[pramipexole]", "values": [
      {"measurement": "patients experiencing adverse drug reactions", "setting": "[2]", "result": "≤ 74", "unit": "%"},
      {"measurement": "activity in β-arrestin recruitment (in words)", "setting": "DRD2 [3]", "result": "low nanomolar activity"},
      {"measurement": "binding to dopamine receptor D1 (in words)", "setting": "Dopamine receptor D1", "result": "bound poorly"}
    ]},
    {"compound": "CCCN(CCC)CCc1cccc2c1CC(=O)N2", "note": "[ropinirole, reference compound]", "values": [
      {"measurement": "pEC50", "setting": "human DRD2, long form; Ca assay, HEK293T stably expressing human DRD2 and chimeric G-protein, Hill slope of 1.0", "result": 6.91},
      {"measurement": "activity in β-arrestin recruitment (in words)", "setting": "DRD2 [3]", "result": "low nanomolar activity"},
      {"measurement": "pEC50", "setting": "DRD2 [3]; PRESTO-TANGO β-arrestin recruitment, luciferase activity, Hill slope of 1.0", "result": 8.21}
    ]}
  ]
}
